According to patent US6667313B1, “8-substituted-6-triflouromethyl-9-pyrido [3,2-G] quinoline compounds as androgen receptor modulators” (Ligand Pharmaceuticals Inc., priority 1999, dated 2003):
Where two headings read alike, the source gives them in different places.

Tests used:
human AR [1] = target: T1, human AR (Homo sapiens, UniProt P10275); experiment: Co-transfection assay, AR agonist, CV-1 cells; type: cell-based; settings: for AR Agonist CV-1 Cells Efficacy (%): percent maximal response relative to reference agonist DHT
T1 sequence (P10275 1-920): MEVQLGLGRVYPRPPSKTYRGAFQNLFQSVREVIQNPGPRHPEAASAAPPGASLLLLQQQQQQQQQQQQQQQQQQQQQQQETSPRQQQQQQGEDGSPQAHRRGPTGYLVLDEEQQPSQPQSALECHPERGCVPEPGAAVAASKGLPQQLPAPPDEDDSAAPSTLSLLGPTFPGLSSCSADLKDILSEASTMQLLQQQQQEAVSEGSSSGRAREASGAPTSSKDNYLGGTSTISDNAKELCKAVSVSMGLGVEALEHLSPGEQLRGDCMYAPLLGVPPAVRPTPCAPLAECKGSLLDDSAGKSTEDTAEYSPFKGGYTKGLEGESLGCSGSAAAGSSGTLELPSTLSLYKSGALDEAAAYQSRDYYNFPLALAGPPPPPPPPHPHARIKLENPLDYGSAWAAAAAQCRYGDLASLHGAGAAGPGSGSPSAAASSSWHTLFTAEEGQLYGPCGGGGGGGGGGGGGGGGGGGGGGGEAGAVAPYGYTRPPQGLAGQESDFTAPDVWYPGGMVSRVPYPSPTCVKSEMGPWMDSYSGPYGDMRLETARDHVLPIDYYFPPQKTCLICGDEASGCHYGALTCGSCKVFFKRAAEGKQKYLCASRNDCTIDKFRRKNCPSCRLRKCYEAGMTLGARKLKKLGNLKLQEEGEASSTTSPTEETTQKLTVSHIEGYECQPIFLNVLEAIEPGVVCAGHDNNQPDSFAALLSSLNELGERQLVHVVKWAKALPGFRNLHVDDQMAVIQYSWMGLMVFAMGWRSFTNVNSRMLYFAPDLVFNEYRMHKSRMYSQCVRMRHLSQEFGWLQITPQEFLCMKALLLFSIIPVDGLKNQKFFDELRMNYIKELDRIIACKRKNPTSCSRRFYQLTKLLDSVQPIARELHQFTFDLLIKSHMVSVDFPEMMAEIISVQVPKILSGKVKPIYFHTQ
Excerpt: (§1) The reporter plasmid, MTV-LUC, contains the cDNA for firefly luciferase (LUC) under control of themouse mammary tumor virus (MTV) long terminal repeat, a conditional promoter containing an androgen response element. See e.g., Berger et al. supra. In addition, pRS-β-Gal, coding for constitutive expression of E. coli β-galactosidase (β-Gal), was included as an internal control for evaluation of transfection efficiency and compound toxicity.
(§2) Three to four replicates were used for each sample.
(§3) After 40 hours, the cells were washed with PBS, lysed with a Triton X-100-based buffer and assayed for LUC and β-Gal activities using a luminometer or spectrophotometer, respectively. For each replicate, the normalized response (NR) was calculated as:
(§4) where β-Gal rate=β-Ga·1×10^−5/β-Gal incubation time.

human AR [2] = target: T1, human AR; experiment: AR whole cell competitive binding assay (3H-DHT), COS-1 cells
Experimental: AR Binding: For the whole cell binding assay, COS-1 cells in 96-well microtiter plates containing DMEM-10% FBS were transfected as described above with the following plasmid DNA: pRShAR (2 ng/well), pRS-β-Gal (50 ng/well) and pGEM (48 ng/well). Six hours after transfection, media was removed, the cells were washed with PBS and fresh media was added. The next day, the media was changed to DMEM-serum free to remove any endogenous ligand that might be complexed with the receptor in the cells.
Three replicates were used for each sample. […] The remaining media was removed, the cells were washed three times with PBS to remove unbound ligand, and cells were lysed with a Triton X-100-based buffer.
For the saturation analyses, the difference between the total binding and the nonspecific binding, normalized by the β-Gal rate, was defined as specific binding.
After correcting for non-specific binding, IC50 values were determined. […] The IC50 value was determined graphically from a log-logit plot of the data. The Ki values were determined by application of the Cheng-Prusoff equivuation to the IC50 values, the labeled ligand concentration and the Kd of the labeled ligand.

human AR [3] = target: T1, human AR; experiment: Co-transfection assay, AR antagonist, CV-1 cells (in presence of DHT); type: cell-based; settings: for AR Antagonist CV-1 Cells Efficacy (%): percent maximal inhibition, DHT at EC50
Excerpt: as §1, §2, §3, §4

Row | SMILES | EC50 (human AR [1]) | AR Agonist CV-1 Cells Efficacy (%) (human AR [1]) | Ki (human AR [2]) | IC50 (human AR [3]) | AR Antagonist CV-1 Cells Efficacy (%) (human AR [3]) | Ki (human AR [2]; COS-1 cells, 1 nM 3H-DHT, Cheng-Prusoff, read-out: AR Binding KI) | IC50 (human AR [3]; read-out: AR Antagonist CV-1 Cells Potency)
1 | CCC1CCNc2cc3nc(SC)cc(C(F)(F)F)c3cc21 (racemic) [Compound 142, (R/S)-4-Ethyl-1,2,3,4-tetrahydro-8-methylthio-6-trifluoromethyl-9-pyrido[3,2-g]quinoline] | 221 ± 108 nM | 30 ± 12% | 307 nM | 131 ± 64 nM | 60 ± 7% | – | –
2 | CC1(C)CCc2cc3c(C(F)(F)F)c(F)cnc3cc2N1 [Compound 126, 7-Fluoro-1,2,3,4-tetrahydro-2,2-dimethyl-6-trifluoromethyl-9-pyrido[3,2-g]quinoline] | – | 3 ± 5% | 58 nM | 181 ± 73 nM | 93 ± 4% | – | –
3 | CC1(C)CCc2cc3c(C(F)(F)F)c(F)c(F)nc3cc2N1 [Compound 113, 7,8-Difluoro-1,2,3,4-tetrahydro-2,2-dimethyl-6-trifluoromethyl-9-pyrido[3,2-g]quinoline] | – | 12% | 152 nM | 500 nM | 37% | – | –
4 | Cc1c2c(cc3c(C(F)(F)F)c(F)c(F)nc13)C(C)CC(C)(C)N2 (centres unmarked) [Compound 115, 7,8-Difluoro-1,2,3,4-tetrahydro-2,2,4,10-tetramethyl-6-trifluoromethyl-9-pyrido[3,2-g]quinoline] | – | 0% | > 1000 nM | 1140 nM | 26% | – | –
5 | CCC1CCNc2cc3nc(Cl)c(F)c(C(F)(F)F)c3cc21 (racemic) [Compound 109, (R/S)-8-Chloro-4-ethyl-7-fluoro-1,2,3,4-tetrahydro-6-trifluoromethyl-9-pyrido[3,2-g]guinoline] | 89 ± 26 nM | 35 ± 12% | 119 ± 65 nM | 39 ± 23 nM | 51 ± 9% | – | –
6 | CCC1CCNc2cc3nc(Cl)cc(C(F)(F)F)c3cc21 (racemic) [Compound 108, (R/S)-8-Chloro-4-ethyl-1,2,3,4-tetrahydro-6-trifluoromethyl-9-pyrido[3,2-g]guinoline] | 73 ± 12 nM | 36 ± 5% | 81 ± 13 nM | 50 ± 27 nM | 28 ± 8% | – | –
7 | CCC1CCNc2cc3nc(C#N)cc(C(F)(F)F)c3cc21 (racemic) [Compound 129, (R/S)-8-Cyano-4-ethyl-1,2,3,4-tetrahydro-6-trifluoromethyl-9-pyrido[3,2-g]quinoline] | – | – | 21 nM | 15 ± 5 nM | 56 ± 25% | – | –
8 | CCC1CCNc2cc3nccc(C(F)(F)F)c3cc21 (racemic) [Compound 125, (R/S)-4-Ethyl-1,2,3,4-tetrahydro-6-trifluoromethyl-9-pyrido[3,2-g]quinoline] | – | 9 ± 7% | 93 nM | 56 ± 17 nM | 93 ± 1% | – | –
9 | Cc1c2c(cc3c(C(F)(F)F)c(F)c(Cl)nc13)C(C)CC(C)(C)N2 (centres unmarked) [Compound 106, 8-Chloro-7-fluoro-1,2,3,4-tetrahydro-2,2,4,10-tetramethyl-6-trifluoro-methyl-9-pyrido[3,2-g]quinoline] | – | 4 ± 2% | > 1000 nM | 550 ± 15 nM | 77 ± 6% | – | –
10 | CC1(C)CCc2cc3c(cc2N1)N(C(=O)c1ccccc1)C(C#N)C=C3C(F)(F)F (racemic) [Compound 131, (R/S)-9-Benzoyl-8-cyano-1,2,3,4,8,9-hexahydro-2,2-dimethyl-6-trifluoromethyl-9-pyrido[3,2-g]quinoline] | – | 0% | > 1000 nM | 63 nM | 91% | – | –
11 | CC1(C)CCc2cc3c(C(F)(F)F)c(F)c(Br)nc3cc2N1 [Compound 119, 8-Bromo-7-fluoro-1,2,3,4-tetrahydro-2,2-dimethyl-6-trifluoromethyl-9-pyrido[3,2-g]quinoline] | – | 6% | 91 ± 68 nM | 47 ± 27 nM | 73 ± 7% | – | –
12 | CCC1CCN(C)c2cc3nc(C#N)cc(C(F)(F)F)c3cc21 (racemic) [Compound 130, (R/S)-8-Cyano-4-ethyl-1,2,3,4-tetrahydro-1-methyl-6-trifluoromethyl-9-pyrido[3,2-g]quinoline] | – | 2% | 787 nM | 782 ± 546 nM | 89 ± 1% | – | –
13 | CCC1CCNc2cc3nc(F)cc(C(F)(F)F)c3cc21 (racemic) [Compound 116, (R/S)-4-Ethyl-8-fluoro-1,2,3,4-tetrahydro-6-trifluoromethyl-9-pyrido[3,2-g]quinoline] | 37 ± 9 nM | 60 ± 4% | 5 nM | – | 0% | – | –
14 | Cc1ccc(C(=O)N2c3cc4c(cc3C(C(F)(F)F)=CC2C#N)CCC(C)(C)N4)cc1 (racemic) [Compound 132, (R/S)-8-Cyano-1,2,3,4,8,9-hexahydro-2,2-dimethyl-9-p-toluoyl-6-trifluoromethyl-9-pyrido[3,2-g]quinoline] | – | – | – | – | 89% | 863 nM | 147 nM
15 | CCC1CCNc2cc3nc(C(F)(F)F)cc(C(F)(F)F)c3cc21 (racemic) [Compound 149, (R/S)-4-Ethyl-1,2,3,4-tetrahydro-6,8-di(trifluoromethyl)-9-pyrido[3,2-g]quinoline] | – | – | 301 nM | 117 ± 31 nM | – | – | –
16 | CCC1CCNc2cc3nc(Br)cc(C(F)(F)F)c3cc21 (racemic) [Compound 121, (R/S)-8-Bromo-4-ethyl-1,2,3,4-tetrahydro-6-trifluoromethyl-9-pyrido[3,2-g]quinoline] | 22 ± 14 nM | 53 ± 15% | 55 nM | – | 8 ± 12% | – | –
17 | C[S+]([O-])c1nc2cc3c(cc2c(C(F)(F)F)c1F)CCC(C)(C)N3 (racemic) [Compound 137, (R/S)-7-Fluoro-1,2,3,4-tetrahydro-2,2-dimethyl-6-trifluoromethyl-8-methylsulfinyl-9-pyrido[3,2-g]quinoline] | – | 10% | > 1000 nM | 1340 nM | 84% | – | –
18 | CC1(C)CCc2cc3c(C(F)(F)F)c(F)c(Cl)nc3cc2N1 [Compound 107, 8-Chloro-7-fluoro-1,2,3,4-tetrahydro-2,2-dimethyl-6-trifluoromethyl-9-pyrido[3,2-g]quinoline] | 1040 nM | 29% | 103 nM | 17 ± 3 nM | 61 ± 8% | – | –
19 | CCC1CCNc2cc3nc([S+](C)[O-])cc(C(F)(F)F)c3cc21 (racemic) [Compound 143, (R/S)-4-Ethyl-1,2,3,4-tetrahydro-8-methylsulfinyl-6-trifluoromethyl-9-pyrido[3.2-g]guinoline] | 33 ± 3 nM | 37 ± 9% | 34 nM | 4690 nM | 59% | – | –
